The record followed here is article PMC4418806 (Biochemistry, 2009).

Positions count from the first letter of the chain named.

For test [1], the target named is T1, Escherichia coli biotin synthase (BioB), His6-BioB (Escherichia coli, UniProt P12996).
T1 sequence (P12996 1-346): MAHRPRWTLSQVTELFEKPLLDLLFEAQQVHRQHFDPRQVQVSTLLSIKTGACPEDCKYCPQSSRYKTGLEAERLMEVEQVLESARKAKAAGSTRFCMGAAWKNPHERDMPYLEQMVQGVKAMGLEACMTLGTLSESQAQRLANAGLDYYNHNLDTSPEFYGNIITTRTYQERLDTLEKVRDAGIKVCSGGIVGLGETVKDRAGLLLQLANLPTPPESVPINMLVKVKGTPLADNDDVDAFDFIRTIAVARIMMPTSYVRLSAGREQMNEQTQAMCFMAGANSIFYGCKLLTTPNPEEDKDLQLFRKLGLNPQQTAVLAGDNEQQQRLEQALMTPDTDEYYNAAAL
Description: […] kDa centrifugal filtration of assay mixture, HPLC. The class given is binding. Conditions: 50 μM enzyme, intermediate formed in situ, after 2 h assay, anaerobic.

The target of test [2] is T1, Escherichia coli biotin synthase (BioB), His6-BioB. Briefly: […] kDa centrifugal filtration binding assay, HPLC.
The target in test [3] is T2, Escherichia coli biotin synthase (BioB), His6-BioB (Escherichia coli, UniProt P12996, N153S).
T2 sequence (P12996 1-346 N153S): T1 sequence (P12996 1-346) with N153S
Briefly: […] kDa centrifugal filtration binding assay, HPLC.

Test [4] has as its target T3, Escherichia coli biotin synthase (BioB), His6-BioB (Escherichia coli, UniProt P12996, N153Q).
T3 sequence (P12996 1-346 N153Q): T1 sequence (P12996 1-346) with N153Q
Briefly: […] kDa centrifugal filtration binding assay, HPLC.

In the case of `O=C(O)CCCCC[C@H]1NC(=O)N[C@H]1CS` [9-MDTB], in test [1], the “% bound to protein” value was ~ 50%.

One may read the Kd as the concentration at which binding is half-saturated. Higher therefore signals a looser complex. Take `C[C@@H]1NC(=O)N[C@@H]1CCCCCC(=O)O` [DTB]: the Kd in test [2] was determined as 0.5 ± 1 µM; in test [3] it was 11 ± 3 µM; in test [4], 110 ± 30 µM.

For `C[S+](CC[C@H](N)C(=O)O)C[C@H]1O[C@@H](n2cnc3c(N)ncnc32)[C@H](O)[C@@H]1O` (stereo partly shown) [AdoMet], the equilibrium dissociation constant (Kd) amounted to 1 ± 0.5 µM in test [2], 3 ± 1 µM in test [3] and 530 ± 180 µM in test [4].
